# Assay results: ChEMBL document CHEMBL1201862, “PubChem BioAssay data set” (2004)
# Activity calls are given as the source filed them.
# Assays:
# [1] = biological target: T1, G-protein coupled receptor 55 (Homo sapiens, UniProt Q9Y2T6); assay: GPR55 agonists via beta-arrestin recruitment, primary screen, imaging, U2OS cells, beta-arrestin-GFP redistribution (AID 1961); type: functional
# [2] = biological target: Intestinal-type alkaline phosphatase (Homo sapiens, UniProt P09923); assay: Dose Response confirmation of uHTS hits from a small molecule inhibitors of human intestinal alkaline phosphatase via a luminescent assay. [Related pubchem assays (depositor defined):AID2544, AID2574]; type: functional
# Chain of Intestinal-type alkaline phosphatase (P09923 whole entry): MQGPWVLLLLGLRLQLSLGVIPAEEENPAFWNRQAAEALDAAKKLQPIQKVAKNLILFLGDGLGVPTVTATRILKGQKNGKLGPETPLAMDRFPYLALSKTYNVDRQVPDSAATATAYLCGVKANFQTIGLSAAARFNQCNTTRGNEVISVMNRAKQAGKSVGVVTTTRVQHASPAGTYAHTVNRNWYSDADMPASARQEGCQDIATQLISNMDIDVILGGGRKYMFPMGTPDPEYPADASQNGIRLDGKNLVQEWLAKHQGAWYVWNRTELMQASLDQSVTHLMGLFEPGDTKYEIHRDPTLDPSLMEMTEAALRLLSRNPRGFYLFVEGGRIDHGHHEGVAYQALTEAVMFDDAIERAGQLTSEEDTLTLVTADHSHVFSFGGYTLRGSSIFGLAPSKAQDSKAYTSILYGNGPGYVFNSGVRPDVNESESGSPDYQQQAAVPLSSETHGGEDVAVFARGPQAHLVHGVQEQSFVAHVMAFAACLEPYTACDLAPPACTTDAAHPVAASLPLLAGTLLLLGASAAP
# [3] = biological target: T2, Hexokinase HKDC1 (Homo sapiens, UniProt Q2TB90); assay: HKDC1 hexokinase inhibitors, dose response, biochemical, W721R variant (AID 504729); type: functional
# T2 sequence (Q2TB90 whole entry): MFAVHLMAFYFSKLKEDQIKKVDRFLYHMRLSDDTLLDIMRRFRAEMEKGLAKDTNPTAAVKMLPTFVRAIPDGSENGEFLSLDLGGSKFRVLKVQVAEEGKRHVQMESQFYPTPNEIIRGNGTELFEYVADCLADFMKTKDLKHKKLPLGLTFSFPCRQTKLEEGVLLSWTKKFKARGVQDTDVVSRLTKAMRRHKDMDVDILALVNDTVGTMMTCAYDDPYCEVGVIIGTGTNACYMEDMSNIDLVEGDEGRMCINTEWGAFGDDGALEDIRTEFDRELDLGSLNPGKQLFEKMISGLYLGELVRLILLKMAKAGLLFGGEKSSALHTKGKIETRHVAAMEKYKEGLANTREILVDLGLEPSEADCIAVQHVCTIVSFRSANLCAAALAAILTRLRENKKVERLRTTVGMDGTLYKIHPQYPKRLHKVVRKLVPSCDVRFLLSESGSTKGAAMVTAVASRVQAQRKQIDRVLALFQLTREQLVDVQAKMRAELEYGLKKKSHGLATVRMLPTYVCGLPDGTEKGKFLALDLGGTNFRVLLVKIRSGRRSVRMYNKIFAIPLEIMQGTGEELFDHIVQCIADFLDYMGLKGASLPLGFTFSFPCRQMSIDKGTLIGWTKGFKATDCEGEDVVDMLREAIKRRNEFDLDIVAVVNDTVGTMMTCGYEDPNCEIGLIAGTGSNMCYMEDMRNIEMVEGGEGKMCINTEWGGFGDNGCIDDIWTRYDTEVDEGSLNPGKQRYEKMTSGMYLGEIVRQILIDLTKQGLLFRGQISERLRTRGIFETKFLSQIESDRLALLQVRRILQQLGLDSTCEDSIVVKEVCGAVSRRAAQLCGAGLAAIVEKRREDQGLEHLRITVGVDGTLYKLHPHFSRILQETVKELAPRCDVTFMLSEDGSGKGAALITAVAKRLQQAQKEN
# [4] = biological target: T3, Bcl-2-related protein A1 (Mus musculus, UniProt Q07440); assay: Bfl-1 inhibitors blocking BH3 peptide binding, confirmation, biochemical, TR-FRET, mouse Bfl-1 (AID 621);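 further: TR-FRET binding of GST-Bfl-1 to FITC-labelled Bid peptide via terbium antibody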
# T3 sequence (Q07440 whole entry): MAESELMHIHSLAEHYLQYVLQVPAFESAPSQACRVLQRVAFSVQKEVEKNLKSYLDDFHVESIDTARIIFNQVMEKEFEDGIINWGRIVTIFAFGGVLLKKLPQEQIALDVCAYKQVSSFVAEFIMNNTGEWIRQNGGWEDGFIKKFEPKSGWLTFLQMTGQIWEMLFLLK
# [5] = biological target: T3, Bcl-2-related protein A1; assay: Bfl-1 binding inhibitors, SAR follow-up, biochemical, fluorescence polarization (AID 1070)
# [6] = biological target: Glyceraldehyde-3-phosphate dehydrogenase (Homo sapiens, UniProt P04406)
# Chain of Glyceraldehyde-3-phosphate dehydrogenase (P04406 whole entry): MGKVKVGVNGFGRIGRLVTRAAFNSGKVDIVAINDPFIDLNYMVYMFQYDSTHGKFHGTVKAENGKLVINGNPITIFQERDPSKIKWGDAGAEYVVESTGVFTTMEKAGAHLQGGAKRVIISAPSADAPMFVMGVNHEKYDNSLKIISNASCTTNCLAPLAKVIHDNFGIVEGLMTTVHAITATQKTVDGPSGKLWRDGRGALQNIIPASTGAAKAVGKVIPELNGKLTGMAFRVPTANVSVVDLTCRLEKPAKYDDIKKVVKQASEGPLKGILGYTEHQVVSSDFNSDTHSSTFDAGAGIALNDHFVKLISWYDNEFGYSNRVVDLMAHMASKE
# [7] = cytotoxicity toward NIH3T3 fibroblasts, dose response, counter-screen, cell-based, ATP luminescence, mouse fibroblasts (AID 2010); type: functional;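 further: cells exposed to compound for about 90 hours before reading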
# [8] = inhibitors of intracellular T. cruzi replication, confirmation, NIH3T3 host cells, beta-gal luminescence (AID 2044); type: functional, cell-based;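 further: intracellular parasites grown in NIH/3T3 mouse fibroblasts as host cells; luminescent beta-galactosidase reporter signal from transgenic T. cruzi replicating inside host cells; inhibitors lower the luminescence signal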
# [9] = biological target: T1, G-protein coupled receptor 55; assay: SAR analysis of selective Agonists of GPR55 using an Image-Based Assay - Set 2. [Related pubchem assays (depositor defined):AID1961, AID1965]; type: functional
# [10] = biological target: T4, Cannabinoid receptor 1 (Homo sapiens, UniProt P21554); assay: SAR analysis of agonists of the Cannabinoid Receptor 1 using an Image-Based Assay - Set 3. [Related pubchem assays (depositor defined):AID1961, AID1965]; type: functional
# T4 sequence (P21554 whole entry): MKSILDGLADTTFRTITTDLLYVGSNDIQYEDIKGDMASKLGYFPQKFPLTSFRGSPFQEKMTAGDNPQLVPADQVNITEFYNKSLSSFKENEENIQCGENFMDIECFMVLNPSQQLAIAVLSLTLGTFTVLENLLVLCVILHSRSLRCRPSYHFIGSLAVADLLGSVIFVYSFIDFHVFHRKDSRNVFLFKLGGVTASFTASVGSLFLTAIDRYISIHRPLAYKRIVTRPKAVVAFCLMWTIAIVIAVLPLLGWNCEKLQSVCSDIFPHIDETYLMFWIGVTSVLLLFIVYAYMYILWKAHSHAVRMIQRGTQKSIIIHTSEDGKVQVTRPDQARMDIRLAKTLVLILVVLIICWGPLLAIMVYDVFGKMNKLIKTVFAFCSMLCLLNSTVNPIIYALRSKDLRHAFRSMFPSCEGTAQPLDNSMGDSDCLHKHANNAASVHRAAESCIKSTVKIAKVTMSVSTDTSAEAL
# [11] = biological target: T4, Cannabinoid receptor 1; assay: SAR analysis of antagonists of the Cannabinoid Receptor 1 using an Image-Based Assay - Set 3. [Related pubchem assays (depositor defined):AID1961, AID1965]; type: functional
# [12] = biological target: T5, Cannabinoid receptor 2 (Homo sapiens, UniProt P34972); assay: SAR analysis of antagonists of the Cannabinoid Receptor 2 using an Image-Based Assay - Set 2. [Related pubchem assays (depositor defined):AID1961, AID1965]; type: functional
# T5 sequence (P34972 whole entry): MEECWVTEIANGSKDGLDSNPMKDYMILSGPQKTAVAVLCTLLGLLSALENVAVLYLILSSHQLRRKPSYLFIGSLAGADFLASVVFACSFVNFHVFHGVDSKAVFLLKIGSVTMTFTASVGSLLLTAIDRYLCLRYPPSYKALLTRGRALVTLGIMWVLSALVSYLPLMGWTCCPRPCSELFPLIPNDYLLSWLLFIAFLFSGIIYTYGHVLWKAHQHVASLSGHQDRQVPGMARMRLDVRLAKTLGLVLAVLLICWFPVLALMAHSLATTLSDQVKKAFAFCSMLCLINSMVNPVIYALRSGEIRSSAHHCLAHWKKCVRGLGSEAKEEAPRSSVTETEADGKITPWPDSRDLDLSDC
# [13] = biological target: T6, G-protein coupled receptor 35 (Homo sapiens, UniProt Q9HC97); assay: SAR analysis of Agonists of the GPR35 Receptor using an Image-Based Assay - Set 3. [Related pubchem assays (depositor defined):AID1961, AID1965]; type: functional
# T6 sequence (Q9HC97 whole entry): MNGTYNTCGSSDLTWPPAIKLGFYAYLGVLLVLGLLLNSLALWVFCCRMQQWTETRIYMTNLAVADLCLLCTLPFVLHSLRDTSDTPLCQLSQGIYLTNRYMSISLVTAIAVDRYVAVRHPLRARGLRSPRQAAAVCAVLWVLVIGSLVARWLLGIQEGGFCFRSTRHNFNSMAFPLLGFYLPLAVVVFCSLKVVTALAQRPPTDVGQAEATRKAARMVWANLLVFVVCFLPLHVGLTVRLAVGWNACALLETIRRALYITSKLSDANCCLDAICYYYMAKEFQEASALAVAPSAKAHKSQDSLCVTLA
# [14] = biological target: T5, Cannabinoid receptor 2; assay: SAR analysis of agonists of the Cannabinoid Receptor 2 using an Image-Based Assay - Set 2. [Related pubchem assays (depositor defined):AID1961, AID1965]; type: functional
# [15] = biological target: T6, G-protein coupled receptor 35; assay: SAR analysis of Antagonists of the GPR35 Receptor using an Image-Based Assay - Set 4. [Related pubchem assays (depositor defined):[…]]; type: functional
# [16] = Luminescence Cell-Based Dose Confirmation HTS to Identify Inhibitors of Platelet Dense Granule Release. [Related pubchem assays: 1663 (Primary HTS), 1678 (Summary of Project)]; type: functional
# [17] = biological target: T7, Calpain-2 catalytic subunit (Sus scrofa, UniProt P43367); assay: pig calpain II inhibitor potency, dose response, biochemical, fluorogenic peptide substrate (AID 1420); type: functional
# T7 sequence (P43367 whole entry): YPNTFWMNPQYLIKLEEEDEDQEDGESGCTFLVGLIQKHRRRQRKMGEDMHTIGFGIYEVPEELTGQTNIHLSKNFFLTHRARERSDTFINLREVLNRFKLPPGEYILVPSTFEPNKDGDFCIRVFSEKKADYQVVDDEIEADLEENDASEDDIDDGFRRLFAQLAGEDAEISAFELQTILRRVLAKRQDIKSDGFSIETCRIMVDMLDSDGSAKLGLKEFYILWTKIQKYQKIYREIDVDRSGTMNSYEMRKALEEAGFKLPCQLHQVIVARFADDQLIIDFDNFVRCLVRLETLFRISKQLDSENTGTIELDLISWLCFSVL
# [18] = biological target: Luciferin 4-monooxygenase (Photinus pyralis, UniProt P08659); assay: firefly luciferase enzyme inhibitors, dose response, biochemical, luminescence (AID 1891)
# Chain of Luciferin 4-monooxygenase (P08659 whole entry): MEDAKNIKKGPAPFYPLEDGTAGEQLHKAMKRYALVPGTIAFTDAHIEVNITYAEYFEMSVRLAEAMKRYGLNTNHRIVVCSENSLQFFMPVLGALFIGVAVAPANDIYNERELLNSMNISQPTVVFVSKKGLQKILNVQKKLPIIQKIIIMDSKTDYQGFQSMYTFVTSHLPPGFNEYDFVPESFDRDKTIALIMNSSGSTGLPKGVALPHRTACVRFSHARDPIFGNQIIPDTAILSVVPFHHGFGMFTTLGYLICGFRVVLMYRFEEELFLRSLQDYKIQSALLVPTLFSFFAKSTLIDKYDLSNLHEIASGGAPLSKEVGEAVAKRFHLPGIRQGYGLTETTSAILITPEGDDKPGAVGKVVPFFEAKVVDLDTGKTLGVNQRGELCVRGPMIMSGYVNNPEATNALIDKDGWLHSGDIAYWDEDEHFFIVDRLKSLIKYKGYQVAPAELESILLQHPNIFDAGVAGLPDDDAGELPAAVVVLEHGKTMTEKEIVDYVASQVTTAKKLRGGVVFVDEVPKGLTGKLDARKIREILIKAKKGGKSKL
# [19] = biological target: Nonstructural protein 1 (Influenza A virus, UniProt Q194T2); type: functional, Influenza A virus (A/California/07/2009(H1N1))
# Chain of Nonstructural protein 1 (Q194T2 whole entry): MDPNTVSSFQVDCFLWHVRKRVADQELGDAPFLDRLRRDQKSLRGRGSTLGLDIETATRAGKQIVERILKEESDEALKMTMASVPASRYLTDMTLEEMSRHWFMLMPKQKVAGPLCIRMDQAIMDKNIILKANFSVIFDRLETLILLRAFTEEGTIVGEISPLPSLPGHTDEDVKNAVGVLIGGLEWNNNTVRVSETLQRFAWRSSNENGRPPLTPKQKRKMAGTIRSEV
# [20] = control 3'UTR Renilla luciferase suppression, dose response, counter-screen for Shn3 inhibitor project, cell-based, Clone20-Shn3RL, cherry-picked (AID 624133); type: functional
# [21] = test system: HEK293; assay: cells; type: functional, cell-based; conditions: Homo sapiens
# [22] = Shn3 3'UTR reporter inhibitors, dose response, cell-based, Clone20 osteoblasts, firefly luciferase, cherry-picked (AID 624132); type: functional;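 further: firefly luciferase luminescence from reporter carrying the Shn3 3'UTR in osteoblasts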
# [23] = inhibitors of clade B AD8 Env fusion, dose response, cell-based, cherry-pick (AID 652062); type: functional;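 further: luciferase signal from cell-cell fusion driven by HIV-1 clade B AD8 Env; potency is for inhibitors of fusion seen as a drop in luminescence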
# [24] = test system: HEK293; assay: NOD1 signaling inhibitors, primary screen, cell-based, luminescence, uHTS (AID 1578); type: functional; conditions: Homo sapiens
# [25] = test system: HEK293; assay: cells; type: functional, cell-based; conditions: Homo sapiens; remark: listed apart in the source
# [26] = test system: HEK293; assay: cells; type: functional, cell-based; conditions: Homo sapiens; remark: listed apart in the source
# [27] = ZM109 Env clade C HIV-1 fusion inhibitors, dose response, HeLa effector, CEM target cells, luciferase, cherry-pick (AID 652058); type: functional, cell-based
# [28] = HepG2 cell cytotoxicity, dose response, cytotoxicity control for Shn3 inhibitor project, CellTiter-Glo, cherry-picked (AID 624134); type: functional, cell-based
# [29] = test system: HEK293; assay: NOD2 signaling inhibitors in MDP-stimulated cells, cell-based, uHTS, luminescence (AID 2001); type: functional; conditions: Homo sapiens
# [30] = biological target: Nucleotide-binding oligomerization domain-containing protein 2 (Homo sapiens, UniProt Q9HC29); assay: NOD2 signaling inhibitors, cell-based, luminescence, uHTS, HEK293 (AID 1566); type: functional
# Chain of Nucleotide-binding oligomerization domain-containing protein 2 (Q9HC29 whole entry, the tested form may be a part): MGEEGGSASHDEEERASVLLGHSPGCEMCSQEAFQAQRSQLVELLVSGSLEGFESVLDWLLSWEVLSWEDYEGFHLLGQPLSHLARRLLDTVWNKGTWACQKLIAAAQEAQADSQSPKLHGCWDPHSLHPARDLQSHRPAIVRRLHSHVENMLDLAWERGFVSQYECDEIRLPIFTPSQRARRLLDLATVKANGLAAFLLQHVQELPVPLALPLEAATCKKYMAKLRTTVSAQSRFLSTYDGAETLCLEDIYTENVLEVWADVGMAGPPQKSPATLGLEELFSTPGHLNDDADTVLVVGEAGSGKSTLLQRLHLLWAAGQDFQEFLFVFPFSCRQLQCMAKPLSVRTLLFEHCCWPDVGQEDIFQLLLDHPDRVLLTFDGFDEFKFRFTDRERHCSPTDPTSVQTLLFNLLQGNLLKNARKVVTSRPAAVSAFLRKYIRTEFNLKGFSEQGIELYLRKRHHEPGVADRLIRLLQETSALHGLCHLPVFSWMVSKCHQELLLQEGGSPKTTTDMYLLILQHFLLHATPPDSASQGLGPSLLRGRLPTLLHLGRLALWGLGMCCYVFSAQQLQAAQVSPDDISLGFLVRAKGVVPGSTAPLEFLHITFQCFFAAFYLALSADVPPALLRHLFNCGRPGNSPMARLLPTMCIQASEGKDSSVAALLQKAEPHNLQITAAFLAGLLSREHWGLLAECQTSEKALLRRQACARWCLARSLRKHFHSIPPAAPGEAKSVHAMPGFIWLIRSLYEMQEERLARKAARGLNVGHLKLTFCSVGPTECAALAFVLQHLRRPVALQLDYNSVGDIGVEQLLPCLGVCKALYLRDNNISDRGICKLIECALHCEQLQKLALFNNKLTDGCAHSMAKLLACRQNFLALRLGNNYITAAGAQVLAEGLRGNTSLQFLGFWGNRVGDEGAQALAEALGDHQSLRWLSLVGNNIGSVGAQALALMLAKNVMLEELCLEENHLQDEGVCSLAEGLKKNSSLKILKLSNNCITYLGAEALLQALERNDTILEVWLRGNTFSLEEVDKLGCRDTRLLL
# [31] = Luminescence Cell-Based Dose Response HTS to Identify Inhibitors of 5'UTR Stem-Loop Driven Prion Protein mRNA Translation in H4 Neuroglioblastoma Cells. [Related pubchem assays: 1827 (Project Summary), 1813 (Primary HTS)]; type: functional
# [32] = inhibitors of firefly luciferase expression or activity, dose response, H4 neuroglioma cells, luminescence (AID 1990); type: functional, cell-based
# [33] = test system: BJ; assay: cytotoxicity toward BJ-TERT-LT-ST fibroblasts, dose response, cell-based, RAS-independent, luminescence (AID 1935); type: functional; conditions: Homo sapiens;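 further: BJ fibroblasts immortalized with TERT plus LT and ST oncogenes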
# [34] = test system: BJ; assay: cytotoxicity toward Ras-transformed BJeLR fibroblasts, dose response, cell-based, alamar blue fluorescence, cherrypicked samples (AID 2631); type: functional; conditions: Homo sapiens;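 further: confirmatory dose-response assay in RAS-dependent BJ fibroblasts engineered with TERT, LT and ST, with cytotoxicity read by fluorescence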
# [35] = cytotoxicity toward DRD oncogenic fibroblasts, dose response, cell-based, non-viral oncogenic, luminescence (AID 1934); type: functional; conditions: Homo sapiens
# [36] = test system: BJ; assay: cells; type: functional, cell-based; conditions: Homo sapiens
# [37] = test system: BJ; assay: cytotoxicity toward BJ-TERT fibroblasts, dose response, cell-based, RAS-independent, luminescence (AID 1933); type: functional; conditions: Homo sapiens
# [38] = biological target: X-box-binding protein 1 (Homo sapiens, UniProt P17861); type: functional, Cricetulus griseus;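 further: confirmatory dose-response counter-screen serving a CHOP assay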
# Chain of X-box-binding protein 1 (P17861 whole entry): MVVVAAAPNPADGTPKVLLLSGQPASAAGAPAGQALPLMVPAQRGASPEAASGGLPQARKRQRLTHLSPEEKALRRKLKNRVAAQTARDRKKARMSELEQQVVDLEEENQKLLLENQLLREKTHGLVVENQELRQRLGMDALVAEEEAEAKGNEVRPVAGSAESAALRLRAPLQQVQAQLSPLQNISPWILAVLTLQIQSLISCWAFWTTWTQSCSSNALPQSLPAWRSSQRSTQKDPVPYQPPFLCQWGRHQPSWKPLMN
# [39] = inhibitors of SNCA 5'UTR-driven reporter translation, confirmation, H4 neuroglioma cells, luminescence (AID 1988); type: functional, cell-based
# T1 sequence (Q9Y2T6 whole entry): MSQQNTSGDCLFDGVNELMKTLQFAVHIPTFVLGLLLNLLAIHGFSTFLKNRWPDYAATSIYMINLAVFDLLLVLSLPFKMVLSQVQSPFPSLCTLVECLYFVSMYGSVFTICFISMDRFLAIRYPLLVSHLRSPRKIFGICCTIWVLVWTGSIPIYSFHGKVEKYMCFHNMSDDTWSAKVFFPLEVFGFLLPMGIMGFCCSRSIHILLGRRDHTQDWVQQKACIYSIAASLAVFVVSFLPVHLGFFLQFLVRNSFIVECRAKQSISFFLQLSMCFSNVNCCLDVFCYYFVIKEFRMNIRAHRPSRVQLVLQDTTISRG
compound,measurement,setting,value
COc1ccccc1-n1cnc2cc(NCc3ccccc3O)ccc21,EC50,[1],1.51 µM (active)
COc1cc(/C=C2\SC(=S)N(N(C)c3ccccc3)C2=O)ccc1O,IC50,[2],13.1 µM (inactive)
COP(=O)(OC)c1ccc(NCc2cc(O)ccc2O)cc1,IC50,[3],9.51 µM (active)
CN1CCN(C2=C(Cl)C(=O)N(c3cccc(Cl)c3Cl)C2=O)CC1,IC50,[4],2.56 µM (active)
same,IC50,[5],8.74 µM (active)
same,IC50,[6],> 100 µM (not active)
Cn1c(SCC(=O)N2c3ccccc3Sc3ccccc32)nc2ccccc21,EC50,[7],> 30 µM (not active)
same,EC50,[8],2.77 µM (active)
same,EC50,[1],1.29 µM (active)
CC(C)Oc1ccc(S(=O)(=O)N2CCOCC2)cc1NC(=O)c1cc2c(s1)CCCCC2,EC50,[9],> 32 µM (inactive)
same,EC50,[10],> 32 µM (inactive)
same,IC50,[11],27.5 µM (inactive)
same,IC50,[12],> 32 µM (inactive)
same,EC50,[13],> 32 µM (inactive)
same,EC50,[14],> 32 µM (inactive)
same,IC50,[15],> 32 µM (inactive)
CN(C)S(=O)(=O)c1ccc(Cl)c(C(=O)N2CCN(c3ccc([N+](=O)[O-])cc3)CC2)c1,EC50,[9],6.98 µM (active)
same,EC50,[10],> 32 µM (inactive)
same,IC50,[11],> 32 µM (inactive)
same,IC50,[12],> 32 µM (inactive)
same,EC50,[13],> 32 µM (inactive)
same,EC50,[14],> 32 µM (inactive)
same,IC50,[15],> 32 µM (inactive)
CCN(CC)c1ccc(/C=C(\C#N)C(N)=S)cc1,EC50,[16],> 112 µM (not active)
same,IC50,[17],5.92 µM (not active)
same,EC50,[18],22.7 µM (active)
same,IC50,[19],39.1 µM (active)
Cc1sc2ncnc(N3CCN(S(=O)(=O)c4ccc(Br)cc4)CC3)c2c1C,AC50,[20],6.05 µM (active)
same,IC50,[21],11.6 µM (active)
same,AC50,[22],3.59 µM (active)
same,AC50,[23],21.2 µM (active)
same,EC50,[24],4.21 µM (active)
same,IC50,[25],4.16 µM (active)
same,IC50,[26],> 20 µM (inactive)
same,AC50,[27],21.5 µM (active)
same,AC50,[28],47.8 µM (active)
same,IC50,[29],5.47 µM (active)
same,EC50,[30],4.22 µM (active)
Cc1ccc(-c2nn(CC(=O)NCc3cc(-c4nn(C)c(=O)c5ccccc45)ccc3C)c(=O)c3ccccc23)cc1,EC50,[31],6.28 µM (active)
same,EC50,[32],8.15 µM (active)
same,EC50,[33],5.6 µM (inconclusive)
same,EC50,[34],> 133 µM (inactive)
same,EC50,[35],6.29 µM (inconclusive)
same,EC50,[36],8.99 µM (active)
same,EC50,[37],4.25 µM (active)
same,Absolute IC50 (XBP1),[38],10 µM
same,EC50,[39],6.81 µM (active)
